From US20250041356A1, “COMBINATION CANCER THERAPY” (Prokarium Limited, priority 2021, published 2025)

Assays:
[1] = test system: 4T1-Luc2-1A4 tumour cells; conditions: monitored over 52 days; log-rank (Mantel-Cox) test
Experimental: Dilutions of the attenuated Salmonella Typhimurium strain (MD58) were made in PBS as required to achieve 1×10^9 CFU/100 μl for oral gavage.
6-7-week-old female BALB/c mice were pre-treated orally with 1×10^9 CFU Salmonella MD58 or PBS control. On day 0 mice were inoculated in mammary fat pad #4 with 5×10^5 4T1-Luc2-1A4 tumour cells. […] Primary tumour volumes were measured 3 times per week, lung tumour burden was measured by bioluminescent imaging (BLI) and survival was monitored until 52 days after tumour inoculation

Primary human monocytes = experiment: In vitro conditioning of primary human monocytes, TNFα release after PAMP/DAMP challenge (ELISA); format: cell-based
Experimental: Primary human monocytes were conditioned in vitro with Salmonella for 30 minutes prior to being washed with an antibiotic to remove all Salmonella and subsequently rested for 6 days in the presence of M-CSF. Following the 6 day rest period, the human monocytes were stimulated with PAMPs, DAMPs or a media only control, and the level of TNFα release measured via ELISA.

Molecule | survival compared to PBS+saline control [1] | level of release of TNFα compared to cells treated with media (negative control) (Primary human monocytes; challenge other than PAMPs (DAMPs)) | responsiveness to PAMPs and DAMPs, level of release of TNFα (Primary human monocytes; conditioned 30 minutes, rested 6 days with M-CSF, then challenged)
O=P1(N(CCCl)CCCl)NCCCO1 (stereo not drawn) [PBS+cyclophosphamide, cyclophosphamide] | significantly better survival | – | –
β-glucan | – | no difference | only induces hyperresponsiveness in response to challenge with PAMPs
